Reference: PMC7395821 (Antiviral Research, 2020)

Columns and labels:
[1] = tested on: eGFP-JEV; assay: eGFP-JEV-based HTS assay in Huh7 cells; assay type: cell-based, Japanese encephalitis virus; conditions: 96-well, cytotoxic and false positive drugs excluded
[2] = tested on: eGFP-JEV; assay: eGFP expression in eGFP-JEV infected BHK-21 cells; assay type: cell-based, Japanese encephalitis virus; conditions: BHK-21, eGFP-JEV MOI 0.1, two-fold dilutions, maximum 3 μM, 72 hpi
[3] = tested on: JEV genome RNA; assay: Real-time RT-PCR of viral RNA in WT-JEV infected Huh7 cells; assay type: cell-based, Japanese encephalitis virus; conditions: WT-JEV MOI 0.5, various dosages, qRT-PCR at 48 hpi
[4] = Cytotoxicity assay; assay type: cell-based; conditions: human, Huh7 cells
[5] = tested on: WT-JEV; assay: Antiviral assay of WT-JEV in Huh7 cells, viral titer by plaque assay; conditions: for EC50: Japanese encephalitis virus, Huh-7, read-out: EC50 (50% reduction of viral titer); for SI (selective index, ratio of CC50 to EC50): Huh7 cells
[6] = tested on: WT-JEV; assay: Time-of-addition assay; assay type: cell-based, Japanese encephalitis virus; conditions: Huh7, WT-JEV MOI 10, 5 μM, titers at 12 hpi

SMILES | hit status after HTS and dose-dependent reconfirmation with eGFP-JEV [1] | viral RNA copies [3] | CC50 at 48 h [4] | EC50 [5] | also measured
OC(c1cc(C(F)(F)F)nc2c(C(F)(F)F)cccc12)C1CCCCN1 (centres unmarked) [Mefloquine] | potent inhibitor of JEV |  |  |  | 
C#C[C@@]1(O)[C@H](O)[C@@H](CO)O[C@H]1n1ccc2c(N)ncnc21 [NITD008] |  |  |  |  | effect on eGFP expression [2]: dose-dependent inhibitory effects
CCCCCCCCCCCCCCCC[N+](C)(C)C [cetrimonium bromide] | newly discovered inhibitors of JEV | decreased in a dose-dependent manner | 7.88 µM | 2.23 µM | 
CCCCCCCCCCCCCCCC[n+]1ccccc1 [cetylpyridinium chlorid, cetylpyridinium chloride] | newly discovered inhibitors of JEV | decreased in a dose-dependent manner |  |  | 
Oc1c(Cl)cc(Cl)c(Cl)c1Cc1c(O)c(Cl)cc(Cl)c1Cl [hexachlorophene] | newly discovered inhibitors of JEV |  | 10 µM | 0.421 µM | SI (selective index, ratio of CC50 to EC50) [5]: > 10
CCOC(=O)C1=C(C)NC(C)=C(C(=O)OCC)C1c1ccccc1/C=C/C(=O)OC(C)(C)C [lacidipine] | identified as hits |  |  |  | 
NC(=O)N1CCC(CC(=O)N2CCC([C@H]3c4ncc(Br)cc4CCc4cc(Cl)cc(Br)c43)CC2)CC1 [lonafarnib] | newly discovered inhibitors of JEV | decreased in a dose-dependent manner | 11.4 µM | 0.982 µM | SI (selective index, ratio of CC50 to EC50) [5]: > 10; effect on virus propagation, compound added pre-infection (-1 to 0 h) [6]: no effect on virus propagation; reduction in viral titer, compound added during viral infection (0-1 h) [6]: 60%; viral titers, compound added post infection (1, 2, 4, 6, 8 h) [6]: significantly reduced
COC(=O)C1=C(C)NC(C)=C(C(=O)OCCN2CCN(C(c3ccccc3)c3ccccc3)CC2)C1c1cccc([N+](=O)[O-])c1 (centres unmarked) [manidipine] | identified as hits |  |  |  | 
COc1c(C)c2c(c(O)c1C/C=C(\C)CCC(=O)O)C(=O)OC2 [mycophenolic acid] | identified as hits |  |  |  | 
O=[N+]([O-])c1ccc(O)c2ncccc12 [nitroxoline] | newly discovered inhibitors of JEV | decreased in a dose-dependent manner | 9.29 µM | 2.48 µM | 
CC[C@@H]1/C=C(\C)C[C@H](C)C[C@H](OC)[C@H]2O[C@@](O)(C(=O)C(=O)N3CCCC[C@H]3C(=O)O[C@H](/C(C)=C/[C@@H]3CC[C@H](Cl)[C@H](OC)C3)[C@H](C)[C@@H](O)CC1=O)[C@H](C)C[C@@H]2OC [pimecrolimus] | identified as hits |  |  |  | 
CC(C)OC(=O)[C@H](C)N[P@](=O)(OC[C@H]1O[C@@H](n2ccc(=O)[nH]c2=O)[C@](C)(F)[C@@H]1O)Oc1ccccc1 [sofosbuvir] | active |  |  |  | 
